Among the data in ChEMBL document CHEMBL1201862, “PubChem BioAssay data set” (2004) are IC50 values, retold here.

One experiment concerns the target T1, Protein skinhead-1 (Caenorhabditis elegans, UniProt P34707).
T1 sequence (P34707 whole entry): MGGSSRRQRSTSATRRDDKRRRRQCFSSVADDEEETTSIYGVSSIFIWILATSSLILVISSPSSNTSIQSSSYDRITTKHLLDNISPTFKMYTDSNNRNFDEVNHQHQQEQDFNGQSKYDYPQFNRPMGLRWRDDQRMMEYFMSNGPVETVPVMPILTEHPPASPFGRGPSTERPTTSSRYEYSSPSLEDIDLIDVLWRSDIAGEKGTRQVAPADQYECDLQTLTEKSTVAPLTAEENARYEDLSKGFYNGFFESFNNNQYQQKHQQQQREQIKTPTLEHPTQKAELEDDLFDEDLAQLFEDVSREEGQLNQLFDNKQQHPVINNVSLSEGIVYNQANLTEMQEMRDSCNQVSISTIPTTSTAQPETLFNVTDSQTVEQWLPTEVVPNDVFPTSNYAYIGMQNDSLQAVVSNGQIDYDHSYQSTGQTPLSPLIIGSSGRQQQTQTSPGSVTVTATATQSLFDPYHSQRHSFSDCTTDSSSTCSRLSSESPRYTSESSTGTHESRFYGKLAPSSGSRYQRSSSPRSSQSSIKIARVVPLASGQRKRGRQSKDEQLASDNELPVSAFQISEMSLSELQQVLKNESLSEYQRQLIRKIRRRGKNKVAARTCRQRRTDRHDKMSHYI
Type of experiment: functional.

In experiment [1] the target is T2, Fructose-bisphosphate aldolase (Mycobacterium tuberculosis, UniProt P9WQA3).
T2 sequence (P9WQA3 whole entry): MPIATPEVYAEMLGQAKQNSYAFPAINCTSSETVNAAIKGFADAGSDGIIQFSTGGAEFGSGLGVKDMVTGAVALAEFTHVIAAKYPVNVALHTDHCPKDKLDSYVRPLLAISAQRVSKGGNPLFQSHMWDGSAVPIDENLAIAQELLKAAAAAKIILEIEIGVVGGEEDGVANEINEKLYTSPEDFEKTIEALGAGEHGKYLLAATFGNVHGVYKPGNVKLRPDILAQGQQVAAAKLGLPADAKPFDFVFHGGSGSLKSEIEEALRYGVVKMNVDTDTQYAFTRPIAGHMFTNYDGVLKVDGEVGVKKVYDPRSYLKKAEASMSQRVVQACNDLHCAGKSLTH
Nature of the experiment: Fluorescence-based biochemical high throughput dose response assay for inhibitors of the fructose-bisphosphate aldolase (FBA) of M. tuberculosis. Type of experiment: functional.

Activity calls are given as the source filed them.

In the case of `CC(C)CC(C(=O)Oc1ccc2c3c(c(=O)oc2c1)CCC3)N1C(=O)c2ccccc2C1=O` (configuration not stated), the figures for the IC50 (at Protein skinhead-1; in experiment [1]) were > 100 µM (inactive) and 1.27 µM (active), respectively.
